One may read the pA2 as a measure of antagonist potency on a negative log scale. As usually defined, the ED50 is the dose at which the effect has come halfway, by size or by number of responders.

Each structure is given as a SMILES string.

The subject of experiment [1] is rabbit aortal strip (TXA2 mimetic agent U46619 as agonist). Put plainly: rabbit aortal strip model, antagonism of the TXA2 mimetic U46619 (test a). Type of experiment: cell-based. From the text: (a) The rabbit aortal strip model devised by Piper and Vane (Nature, 1969, 223, 29-35) using as agonist the TXA2 mimetic agent known as U46619 (R. L. Jones et alia in "Chemistry, Biochemistry and Pharmacological Activity of Prostanoids", eds. S. M. Roberts and F. Scheinmann, at p. 211; Pergamon Press, 1979);

In experiment [2] the test system is blood pressure at the carotid artery. Put plainly: hypertensive effect of U46619 in anaesthetised rats (test d). Type of experiment: in vivo, rats (Alderley Park strain). The following applies: Rattus norvegicus, iv; intravenously via the jugular vein, anaesthetised male rats, n=3; read-out: ED50 (dose necessary to produce 50% of the maximum hypertensive effect). The procedure: (d) Male rats (Alderley Park strain) are anaesthetised with sodium pentobarbital and blood pressure is monitored at the carotid artery. The TXA2 mimetic agent U46619 is administered intravenously via the jugular vein and an ED50 (dose necessary to produce 50% of the maximum hypertensive effect) is established (n=3). The ED50 for U46619 is approximately 5 μg/kg. A test compound is then administered either intravenously via the jugular vein or orally via a cannula directly into the stomach and the animal challenged with an ED50 dose of U46619, five minutes after dosing with test compound and then successively every ten minutes until the hypertensive effect of U46619 is no longer blocked.

For `CC1(C)OC[C@H](Cc2ccccc2CCCC(=O)O)[C@H](c2ccccc2O)O1` (relative stereo) [Example 3, 4-(o-[2,2-dimethyl-4-o-hydroxyphenyl-1,3 dioxan cis-5-ylmethyl]phenyl)butanoic acid], the pA2 in experiment [1] worked out at 6.19.

Regarding `CCCCC[C@H](O)/C=C/[C@@H]1[C@@H](C/C=C\CCCC(=O)O)[C@H]2CO[C@@H]1C2` [Example U46619], the 50% effective dose (ED50) in experiment [2] was approximately 5 µg/kg.
